Experimental data reported in PubChem BioAssay AID248 (DTP/NCI, 2004).
Where “and” joins values, the source holds several entries; their conditions need not be identical. Identical values can stand only once. Toxic doses and inconclusive results are not listed. Rule as the data show it: active = T/C of 150% or more; inactive = T/C below 125%.

Test system: L1210 leukemia ip in BDF1 mice, survival T/C
Experiment: NCI In Vivo Anticancer Drug Screen. Data for tumor model L1210 Leukemia (intraperitoneal) in B6D2F1 (BDF1) mice
Conditions: endpoint: mean survival time, higher = longer survival
Outline: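 In this screen, tumor-bearing mice given compound are compared to those given vehicle, and their survival values are reported as a treated-to-control quotient.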

[1] = dose: 100.0 mg/kg/injection, schedule: Q04DX003 (ip), vehicle: saline with Tween-80
[2] = dose: 200.0 mg/kg/injection, schedule: Q04DX003 (ip), vehicle: saline with Tween-80
[3] = dose: 400.0 mg/kg/injection, schedule: Q04DX003 (ip), vehicle: saline with Tween-80
[4] = dose: 100.0 mg/kg/injection, schedule: Q04DX002 (ip), vehicle: Klucel (hydroxypropylcellulose) (HPC)
[5] = dose: 100.0 mg/kg/injection, schedule: Q04DX002 (ip), vehicle: saline with Tween-80
[6] = dose: 200.0 mg/kg/injection, schedule: Q04DX002 (ip), vehicle: saline with Tween-80
[7] = dose: 400.0 mg/kg/injection, schedule: Q04DX002 (ip), vehicle: saline with Tween-80
[8] = dose: 100.0 mg/kg/injection, schedule: Q01DX001 (ip), vehicle: saline with Tween-80
[9] = dose: 200.0 mg/kg/injection, schedule: Q01DX001 (ip), vehicle: saline with Tween-80
[10] = dose: 100.0 mg/kg/injection, schedule: Q01DX009 (ip), vehicle: saline with Tween-80
[11] = dose: 200.0 mg/kg/injection, schedule: Q01DX009 (ip), vehicle: saline with Tween-80
[12] = dose: 400.0 mg/kg/injection, schedule: Q01DX009 (ip), vehicle: saline with Tween-80
[13] = dose: 50.0 mg/kg/injection, schedule: Q01DX009 (ip), vehicle: saline with Tween-80
[14] = dose: 100.0 mg/kg/injection, schedule: Q01DX009 (ip), vehicle: Klucel (hydroxypropylcellulose) (HPC)
[15] = dose: 200.0 mg/kg/injection, schedule: Q01DX009 (ip), vehicle: Klucel (hydroxypropylcellulose) (HPC)
[16] = dose: 400.0 mg/kg/injection, schedule: Q01DX009 (ip), vehicle: Klucel (hydroxypropylcellulose) (HPC)
[17] = dose: 100.0 mg/kg/injection, schedule: Q04DX003 (ip), vehicle: saline
[18] = dose: 200.0 mg/kg/injection, schedule: Q04DX003 (ip), vehicle: saline
[19] = dose: 400.0 mg/kg/injection, schedule: Q04DX003 (ip), vehicle: saline

Measured: T/C

ClCCOCCOc1ccc(Cl)cc1
inactive: dose: 100.0 mg/kg/injection, schedule: Q04DX003 (ip), vehicle: acetone 98 % of control | dose: 200.0 mg/kg/injection, schedule: Q04DX003 (ip), vehicle: acetone 98 % of control | dose: 400.0 mg/kg/injection, schedule: Q04DX003 (ip), vehicle: acetone 91 % of control

COc1cc2ccc(/C(C)=N/OC(C)=O)cc2cc1OC
inactive: [1] 100 % of control | [2] 100 % of control | [3] 106 % of control

NC(=S)Nc1cccc(O)c1
inactive: dose: 100.0 mg/kg/injection, schedule: Q01DX009 (ip), vehicle: gum acacia 96 % of control | dose: 100.0 mg/kg/injection, schedule: Q04DX003 (ip), vehicle: gum acacia 92 % of control | dose: 200.0 mg/kg/injection, schedule: Q01DX009 (ip), vehicle: gum acacia 87 % of control | dose: 200.0 mg/kg/injection, schedule: Q04DX003 (ip), vehicle: gum acacia 92 % of control | dose: 400.0 mg/kg/injection, schedule: Q01DX009 (ip), vehicle: gum acacia 87 % of control | dose: 400.0 mg/kg/injection, schedule: Q04DX003 (ip), vehicle: gum acacia 92 % of control

O=C(NCC(O)CNC(=O)Nc1ccc(C2=NCC(O)CN2)cc1)Nc1ccc(C2=NCC(O)CN2)cc1 (centres undefined)
inactive: dose: 25.0 mg/kg/injection, schedule: Q01DX Z (ip), vehicle: carboxymethylcellulose (CMC) 100 % of control | dose: 50.0 mg/kg/injection, schedule: Q01DX Z (ip), vehicle: carboxymethylcellulose (CMC) 108 % of control | dose: 100.0 mg/kg/injection, schedule: Q01DX Z (ip), vehicle: carboxymethylcellulose (CMC) 121 % of control

NNC(=O)CNc1ccc(Cl)cc1
inactive: dose: 25.0 mg/kg/injection, schedule: Q04DX002 (ip), vehicle: Klucel (hydroxypropylcellulose) (HPC) 98 % of control | dose: 50.0 mg/kg/injection, schedule: Q04DX002 (ip), vehicle: Klucel (hydroxypropylcellulose) (HPC) 106 % of control | [4] 98 % of control and 123 % of control

N#CCCN(CCCN1CCOCC1)C(=S)Nc1ccc(Cl)cc1
inactive: [5] 94 % of control | [6] 90 % of control | [7] 101 % of control

CN(CCC(=O)c1ccccc1)CCC(=O)c1ccccc1
inactive: [8] 93 % of control | [9] 94 % of control

COC(=O)C1CCC2c3ccccc3C(C1)c1ccccc12 (centres undefined)
inactive: [10] 97 % of control | [1] 101 % of control | [11] 95 % of control | [2] 95 % of control | [12] 94 % of control | [3] 93 % of control

Cc1cccc(SC(=O)Nc2ccc(Cl)cc2C)c1
inactive: dose: 12.5 mg/kg/injection, schedule: Q01DX009 (ip), vehicle: saline with Tween-80 91 % of control | dose: 25.0 mg/kg/injection, schedule: Q01DX009 (ip), vehicle: saline with Tween-80 95 % of control | [13] 119 % of control

CC(=O)Oc1c2ccccc2c(OC(C)=O)c2cc(/C=C/C(=O)O)ccc12
inactive: [1] 95 % of control | [2] 90 % of control | [3] 88 % of control

COc1cc2c(cc1OC)C(Cc1ccc([N+](=O)[O-])cc1)=[N+](C)CC2
inactive: dose: 100.0 mg/kg/injection, schedule: Q01DX001 (ip), vehicle: carboxymethylcellulose (CMC) 103 % of control | dose: 200.0 mg/kg/injection, schedule: Q01DX001 (ip), vehicle: carboxymethylcellulose (CMC) 105 % of control | dose: 400.0 mg/kg/injection, schedule: Q01DX001 (ip), vehicle: carboxymethylcellulose (CMC) 108 % of control

COC(=O)C12C(=CCP1(C)=O)C(c1ccccc1)=NN2c1ccccc1 (centres undefined)
inactive: dose: 12.5 mg/kg/injection, schedule: Q04DX002 (ip), vehicle: saline with Tween-80 92 % of control | dose: 25.0 mg/kg/injection, schedule: Q04DX002 (ip), vehicle: saline with Tween-80 95 % of control

CCCCCCCCCCCCNC(=O)Nc1cc(C)ccc1C
inactive: [14] 97 % of control | dose: 100.0 mg/kg/injection, schedule: Q04DX003 (ip), vehicle: Klucel (hydroxypropylcellulose) (HPC) 94 % of control | [15] 86 % of control | dose: 200.0 mg/kg/injection, schedule: Q04DX003 (ip), vehicle: Klucel (hydroxypropylcellulose) (HPC) 95 % of control | [16] 86 % of control | dose: 400.0 mg/kg/injection, schedule: Q04DX003 (ip), vehicle: Klucel (hydroxypropylcellulose) (HPC) 97 % of control

CC(=O)NCCC(=O)O
inactive: [17] 95 % of control | [18] 101 % of control | [19] 95 % of control

Clc1ccc(/C=N/c2snc3ccccc23)c(Cl)c1
inactive: [4] 95 % of control | dose: 200.0 mg/kg/injection, schedule: Q04DX002 (ip), vehicle: Klucel (hydroxypropylcellulose) (HPC) 88 % of control | dose: 400.0 mg/kg/injection, schedule: Q04DX002 (ip), vehicle: Klucel (hydroxypropylcellulose) (HPC) 92 % of control

CC(=O)C1CCC2C3CCC4=CC(=O)CCC4(C)C3(C)C(=O)CC12C (centres undefined)
inactive: dose: 50.0 mg/kg/injection, schedule: Q01DX001 (sc), vehicle: steriod suspending solution 102 % of control and 105 % of control | dose: 100.0 mg/kg/injection, schedule: Q01DX001 (sc), vehicle: steriod suspending solution 102 % of control and 107 % of control | dose: 200.0 mg/kg/injection, schedule: Q01DX001 (sc), vehicle: steriod suspending solution 105 % of control | dose: 400.0 mg/kg/injection, schedule: Q01DX001 (sc), vehicle: steriod suspending solution 105 % of control and 96 % of control

O=C(NCc1cccnc1)c1ccccc1N=Cc1cc(Cl)cc(Cl)c1O
inactive: [14] 98 % of control | [15] 96 % of control | [16] 89 % of control

O=C(Nc1ccc(Cl)cc1[N+](=O)[O-])Nc1ccccc1C(F)(F)F
inactive: [8] 93 % of control | [10] 94 % of control and 90 % of control | [5] 95 % of control and 96 % of control | [1] 97 % of control | [9] 90 % of control | [11] 100 % of control and 92 % of control | [6] 93 % of control and 98 % of control | [2] 88 % of control | dose: 400.0 mg/kg/injection, schedule: Q01DX001 (ip), vehicle: saline with Tween-80 101 % of control | [12] 94 % of control and 87 % of control | [7] 91 % of control | [3] 88 % of control

Cc1ccc(NSC(Cl)(Cl)Cl)cc1
inactive: dose: 50.0 mg/kg/injection, schedule: Q04DX002 (ip), vehicle: saline with Tween-80 101 % of control | [5] 106 % of control and 108 % of control | [6] 98 % of control and 123 % of control

CC(=O)OCC(C)CC/C(=N\O)C(C)C1/C(=N/O)CC2C=C3CC(OC(C)=O)CCC3(C)CC21C (centres undefined)
inactive: dose: 50.0 mg/kg/injection, schedule: Q01DX009 (ip), vehicle: Klucel (hydroxypropylcellulose) (HPC) 97 % of control | [14] 91 % of control | [15] 91 % of control

O=C(O)/C=C/C(=O)Nc1ccc(I)cc1
inactive: dose: 50.0 mg/kg/injection, schedule: Q04DX003 (ip), vehicle: saline with Tween-80 104 % of control | [1] 104 % of control | [2] 104 % of control

CN(C)CCCN1c2ccccc2Sc2cc(C=[N+](C)C)ccc21
inactive: dose: 100.0 mg/kg/injection, schedule: Q04DX003 (sc), vehicle: olive oil, sesame oil, peanut oil 103 % of control | dose: 200.0 mg/kg/injection, schedule: Q04DX003 (sc), vehicle: olive oil, sesame oil, peanut oil 98 % of control | dose: 400.0 mg/kg/injection, schedule: Q04DX003 (sc), vehicle: olive oil, sesame oil, peanut oil 108 % of control

C=CCC(C(=O)OC)C(=O)C(C)(C)C (centres undefined)
inactive: [13] 100 % of control | [10] 92 % of control | [11] 100 % of control

Cc1ccc(NC(=O)/C=C/C(=O)Nc2ccc(C)cc2)cc1
inactive: [17] 103 % of control | [18] 100 % of control | [19] 103 % of control

Cc1nc(N)[nH]c(=O)c1CCCCCN
inactive: [17] 101 % of control | [18] 106 % of control | [19] 100 % of control

O=S(=O)(c1ccc(O)c(F)c1)c1ccc(O)c(F)c1
inactive: dose: 100.0 mg/kg/injection, schedule: Q04DX002 (ip), vehicle: gum acacia 90 % of control | dose: 200.0 mg/kg/injection, schedule: Q04DX002 (ip), vehicle: gum acacia 101 % of control
